Assay results published in ChEMBL document CHEMBL2413072, “Synthesis and in vitro anticancer studies of novel C-2 arylidene congeners of lantadenes” (2013).

What was measured:
Assay type in all cases: functional
RXF 393 = test: Growth inhibition of human RXF393 cells assessed as cell growth at 10^-7 M by sulforhodamine B assay; settings: read-out: Activity
SF-295 = test: Growth inhibition of human SF295 cells assessed as cell growth at 10^-7 M by sulforhodamine B assay; settings: read-out: Activity
OVCAR-8 [1] = test: Growth inhibition of human OVCAR8 cells by sulforhodamine B assay
KM12 = test: Growth inhibition of human KM12 cells by sulforhodamine B assay
SNB-19 [2] = test: Growth inhibition of human SNB19 cells assessed as cell growth at 10^-6 M by sulforhodamine B assay; settings: read-out: Activity
NCI-H322M = test: Growth inhibition of human NCI-H322M cells by sulforhodamine B assay
SNB-19 [3] = test: Growth inhibition of human SNB19 cells by sulforhodamine B assay
HCT-116 = test: Growth inhibition of human HCT116 cells by sulforhodamine B assay
MDA-MB-231 [4] = test: Growth inhibition of human MDA-MB-231 cells assessed as cell growth at 10^-8 M by sulforhodamine B assay; settings: read-out: Activity
NCI-H522 = test: Growth inhibition of human NCI-H522 cells assessed as cell growth at 10^-6 M by sulforhodamine B assay; settings: read-out: Activity
OVCAR-8 [5] = test: Growth inhibition of human OVCAR8 cells assessed as cell growth at 10^-7 M by sulforhodamine B assay; settings: read-out: Activity
SN12C = test: Growth inhibition of human SN12C cells assessed as cell growth at 10^-4 M by sulforhodamine B assay; settings: read-out: Activity
MDA-MB-231 [6] = test: Growth inhibition of human MDA-MB-231 cells assessed as cell growth at 10^-4 M by sulforhodamine B assay; settings: read-out: Activity
MOLT-4 = test: Growth inhibition of human MOLT4 cells assessed as cell growth at 10^-6 M by sulforhodamine B assay; settings: read-out: Activity
Malme-3M = test: Growth inhibition of human MALME-3M cells assessed as cell growth at 10^-6 M by sulforhodamine B assay; settings: read-out: Activity
UACC-257 [7] = test: Growth inhibition of human UACC257 cells by sulforhodamine B assay
UACC-257 [8] = test: Growth inhibition of human UACC257 cells assessed as cell growth at 10^-6 M by sulforhodamine B assay; settings: read-out: Activity
SK-MEL-2 = test: Growth inhibition of human SK-MEL-2 cells assessed as cell growth at 10^-4 M by sulforhodamine B assay; settings: read-out: Activity
DU-145 = test: Growth inhibition of human DU145 cells by sulforhodamine B assay
SK-MEL-28 = test: Growth inhibition of human SK-MEL-28 cells assessed as cell growth at 10^-6 M by sulforhodamine B assay; settings: read-out: Activity
[9] = Growth inhibition of human Hs 578T cells assessed as cell growth at 10^-4 M by sulforhodamine B assay; settings: read-out: Activity
HOP-92 [10] = test: Growth inhibition of human HOP92 cells assessed as cell growth at 10^-7 M by sulforhodamine B assay; settings: read-out: Activity
PC-3 = test: Growth inhibition of human PC3 cells assessed as cell growth at 10^-4 M by sulforhodamine B assay; settings: read-out: Activity
CAKI-1 = test: Growth inhibition of human CAKI-1 cells assessed as cell growth at 10^-4 M by sulforhodamine B assay; settings: read-out: Activity
LOX IMVI = test: Growth inhibition of human LOXIMVI cells assessed as cell growth at 10^-8 M by sulforhodamine B assay; settings: read-out: Activity
OVCAR-3 = test: Growth inhibition of human OVCAR3 cells assessed as cell growth at 10^-6 M by sulforhodamine B assay; settings: read-out: Activity
HOP-92 [11] = test: Growth inhibition of human HOP92 cells assessed as cell growth at 10^-8 M by sulforhodamine B assay; settings: read-out: Activity
SK-OV-3 [12] = test: Growth inhibition of human SKOV3 cells by sulforhodamine B assay
HOP-62 = test: Growth inhibition of human HOP62 cells assessed as cell growth at 10^-4 M by sulforhodamine B assay; settings: read-out: Activity
BT-549 = test: Growth inhibition of human BT549 cells assessed as cell growth at 10^-7 M by sulforhodamine B assay; settings: read-out: Activity
A498 = test: Growth inhibition of human A498 cells by sulforhodamine B assay
OVCAR-5 = test: Growth inhibition of human OVCAR5 cells assessed as cell growth at 10^-8 M by sulforhodamine B assay; settings: read-out: Activity
[13] = Growth inhibition of human HCC2998 cells assessed as cell growth at 10^-4 M by sulforhodamine B assay; settings: HCC 2998, read-out: Activity
T47D = test: Growth inhibition of human T47D cells assessed as cell growth at 10^-4 M by sulforhodamine B assay; settings: read-out: Activity
SF-268 = test: Growth inhibition of human SF268 cells assessed as cell growth at 10^-8 M by sulforhodamine B assay; settings: read-out: Activity
SK-OV-3 [14] = test: Growth inhibition of human SKOV3 cells assessed as cell growth at 10^-7 M by sulforhodamine B assay; settings: read-out: Activity
NCI-H460 = test: Growth inhibition of human NCI-H460 cells by sulforhodamine B assay
[15] = Growth inhibition of human HCC2998 cells assessed as cell growth at 10^-7 M by sulforhodamine B assay; settings: HCC 2998, read-out: Activity
[16] = read-out: LC50 (the source's name)
[17] = read-out: pLC50 (the source's name) (converted)

CC(C)=CC(=O)O[C@@H]1CC(C)(C)C[C@H]2C3=CC[C@@H]4[C@@]5(C)CC[C@H](O)C(C)(C)[C@@H]5CC[C@@]4(C)[C@]3(C)CC[C@@]12C(=O)O [Reduced Lantadene B]
growth at 0.1 µM (RXF 393): 95%
growth at 0.1 µM (SF-295): 80%
GI50 (OVCAR-8 [1]; read-out: GI50): 4.68 µM
CC50 (OVCAR-8 [1]; [16]): > 100 µM
TGI (OVCAR-8 [1]; read-out: TGI): 28.9 µM
GI50 (OVCAR-8 [1]; read-out: pGI50 (converted)): 4.68 µM
CC50 (OVCAR-8 [1]; [17]): > 100 µM
TGI (OVCAR-8 [1]; read-out: pTGI (converted)): 28.8 µM
GI50 (KM12; read-out: GI50): 0.862 µM
LC50 (50% net cell kill) (KM12; read-out: LC50): > 100 µM
TGI (KM12; read-out: TGI): 19.6 µM
GI50 (KM12; read-out: pGI50 (converted)): 0.871 µM
LC50 (50% net cell kill) (KM12; read-out: pLC50 (converted)): > 100 µM
TGI (KM12; read-out: pTGI (converted)): 19.5 µM
growth at 1 µM (SNB-19 [2]): 86%
GI50 (NCI-H322M; read-out: GI50): 3.62 µM
LC50 (50% lethal concentration) (NCI-H322M; read-out: LC50): 58 µM
TGI (NCI-H322M; read-out: TGI): 15 µM
GI50 (NCI-H322M; read-out: pGI50 (converted)): 3.63 µM
LC50 (50% lethal concentration) (NCI-H322M; read-out: pLC50 (converted)): 57.5 µM
TGI (NCI-H322M; read-out: pTGI (converted)): 15.1 µM
GI50 (SNB-19 [3]; read-out: GI50): 4.93 µM
CC50 (SNB-19 [3]; [16]): 74.4 µM
TGI (SNB-19 [3]; read-out: TGI): 22.5 µM
GI50 (SNB-19 [3]; read-out: pGI50 (converted)): 4.9 µM
CC50 (SNB-19 [3]; [17]): 74.1 µM
TGI (SNB-19 [3]; read-out: pTGI (converted)): 22.4 µM
GI50 (HCT-116; read-out: GI50): 2.67 µM
LC50 (HCT-116; read-out: LC50): 50.2 µM
TGI (HCT-116; read-out: TGI): 15.9 µM
GI50 (HCT-116; read-out: pGI50 (converted)): 2.69 µM
LC50 (HCT-116; read-out: pLC50 (converted)): 50.1 µM
TGI (HCT-116; read-out: pTGI (converted)): 15.8 µM
growth at 0.01 µM (MDA-MB-231 [4]): 111%
growth at 1 µM (NCI-H522): 78%
growth at 0.1 µM (OVCAR-8 [5]): 101%
growth at 100 µM (SN12C): -91%
growth at 100 µM (MDA-MB-231 [6]): -79%
growth at 1 µM (MOLT-4): 78%
growth at 1 µM (Malme-3M): 104%
GI50 (UACC-257 [7]; read-out: GI50): 14.5 µM
CC50 (UACC-257 [7]; [16]): > 100 µM
TGI (UACC-257 [7]; read-out: TGI): 45.6 µM
GI50 (UACC-257 [7]; read-out: pGI50 (converted)): 14.5 µM
CC50 (UACC-257 [7]; [17]): > 100 µM
TGI (UACC-257 [7]; read-out: pTGI (converted)): 45.7 µM
growth at 1 µM (UACC-257 [8]): 98%
growth at 100 µM (SK-MEL-2): -71%
GI50 (DU-145; read-out: GI50): 7.7 µM
CC50 (DU-145; [16]): 61.6 µM
TGI (DU-145; read-out: TGI): 23.5 µM
GI50 (DU-145; read-out: pGI50 (converted)): 7.76 µM
CC50 (DU-145; [17]): 61.7 µM
TGI (DU-145; read-out: pTGI (converted)): 23.4 µM
growth at 1 µM (SK-MEL-28): 97%
growth at 100 µM [9]: -45%
growth at 0.1 µM (HOP-92 [10]): 87%
growth at 100 µM (PC-3): -71%
growth at 100 µM (CAKI-1): -9%
growth at 0.01 µM (LOX IMVI): 98%
growth at 1 µM (OVCAR-3): 86%
growth at 0.01 µM (HOP-92 [11]): 91%
GI50 (SK-OV-3 [12]; read-out: GI50): 12.8 µM
CC50 (SK-OV-3 [12]; [16]): 80.2 µM
TGI (SK-OV-3 [12]; read-out: TGI): 32 µM
GI50 (SK-OV-3 [12]; read-out: pGI50 (converted)): 12.9 µM
CC50 (SK-OV-3 [12]; [17]): 79.4 µM
TGI (SK-OV-3 [12]; read-out: pTGI (converted)): 32.4 µM
growth at 100 µM (HOP-62): -60%
growth at 0.1 µM (BT-549): 98%
GI50 (A498; read-out: GI50): 2.83 µM
CC50 (A498; [16]): 41.3 µM
TGI (A498; read-out: TGI): 13.7 µM
GI50 (A498; read-out: pGI50 (converted)): 2.82 µM
CC50 (A498; [17]): 41.7 µM
TGI (A498; read-out: pTGI (converted)): 13.8 µM
growth at 0.01 µM (OVCAR-5): 95%
growth at 100 µM [13]: -66%
growth at 100 µM (T47D): -17%
growth at 0.01 µM (SF-268): 93%
growth at 0.1 µM (SK-OV-3 [14]): 103%
GI50 (NCI-H460; read-out: GI50): 3.07 µM
LC50 (NCI-H460; read-out: LC50): > 100 µM
TGI (NCI-H460; read-out: TGI): 66.8 µM
GI50 (NCI-H460; read-out: pGI50 (converted)): 3.09 µM
LC50 (NCI-H460; read-out: pLC50 (converted)): > 100 µM
TGI (NCI-H460; read-out: pTGI (converted)): 66.1 µM
growth at 0.1 µM [15]: 99%
